According to patent US20160194358A1, “LINEAR PEPTIDE ANTIBIOTCS” (priority 2013, published 2016):
≈ marks a conversion by molar mass, not a printed value. Read-outs that look alike come from different tables or passages of the source. Where a SMILES comes first, the peptide text is derived from it. The star is where a group is joined. boroAla((+)-pinanediol) = C[C@H](N*)B1O[C@@H]2C[C@@H]3C[C@@H](C3(C)C)[C@]2(C)O1; Propanoyl(3-decylamino) = CCCCCCCCCCNCCC(=O)*

How the values were obtained:
[1] = system: Escherichia coli strain MC4100 IMP-4213, which harbors an LptD mutation; details: E. coli MC4100 IMP-4213; 35° C., 22 hours
In short: (§1)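 CLSI broth microdilution in cation-adjusted Mueller Hinton Broth with 0.002% Tween-80, two-fold dilutions starting at 64 μg/ml.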

[2] = system: methicillin resistant Staphylococcus aureus (MRSA) strain USA300 (NRS384); details: MRSA USA300 (NRS384); 35° C., 22 hours
In short: as §1

[3] = system: MRSA strain USA300; details: Compound 217 with imipenem, synergy defined as sum of FICs ≦0.5
Experimental: In this assay in each axis of a 96-well plate contains a 2-fold dilution of a given agent, such that each well contains a unique combination of the agents being tested.
To create a checkerboard dilution scheme, imipenem was diluted in Mueller Hinton II Broth+0.002% Tween-80 to twice the final desired concentration, and six 2-fold serial dilutions were performed in the same media yielding seven imipenem concentrations. Dilutions of Compound 217 were prepared similarly except that ten dilutions were performed for a total of eleven concentrations. For each concentration of imipenem, 50 uL aliquots were transferred to columns 1-12 of a given row of a 96-well clear polypropylene assay plate. For each concentration of Compound 217, 50 uL were transferred to rows A-H of a given column of the same plate. […]
MRSA strain USA300 was grown overnight at 35° C. on Mueller Hinton Agar plates, and colonies were suspended in Mueller Hinton II Broth+0.002% Tween-80 to a final density of 1*10^7 cfu/ml. […] The plate was incubated at 35° C. for 22 hours after which growth was determined via visual inspection. For each sub-MIC concentration of imipenem, the concentration of Compound 217 required to prevent visible growth was recorded, and the fractional inhibitor concentration (FIC) of each agent was calculated by dividing the concentration of each agent by MIC of the agent alone. […]

[4] = system: MRSA strain USA300; details: 0.5 ug/mL imipenem plus 0.125 ug/mL Compound 217
Experimental: Time-kill experiments were performed in 96-well incubation plates using Mueller Hinton II Broth+0.002% Tween-80 as the growth media. Individual wells contained imipenem alone, Compound 217 alone, or a combination of both agents at various concentrations. MRSA strain USA300 was grown overnight at 35° C. on Mueller Hinton Agar plates, and colonies were suspended in Mueller Hinton II Broth+0.002% Tween-80 to a final density of 2*10^8 cfu/mL. To each well of the incubation plates, 5 uL of this suspension were added, resulting in an initial density of 1*10^7 cfu/mL. Plates were incubated at 35° C., and at various time points 30 μl samples were removed, mixed 1:1 with 25 mg/ml activated carbon, serially diluted in sterile phosphate buffered saline supplemented with 0.05% Tween 20, and spotted onto Mueller Hinton Agar plates to enable cfu quantification. Colonies were counted and the cfu/ml at each time point calculated by based on the dilution factor and volume spotted.

[5] = system: MRSA strain USA300
[6] = MRSA USA300, partner Amoxicillin/Clav at 1/4x its MIC
[7] = MRSA USA300, partner Ampicillin at 1/4x its MIC
[8] = MRSA USA300, partner Azlocillin at 1/4x its MIC
[9] = MRSA USA300, partner Biapenem at 1/4x its MIC
[10] = MRSA USA300, partner Carbenicillin at 1/4x its MIC
[11] = MRSA USA300, partner Cefaclor at 1/4x its MIC
[12] = MRSA USA300, partner Cefamandole at 1/4x its MIC
[13] = MRSA USA300, partner Cefazolin at 1/4x its MIC
[14] = MRSA USA300, partner Cefdinir at 1/4x its MIC
[15] = MRSA USA300, partner Cefepime at 1/4x its MIC
[16] = MRSA USA300, partner Cefixime at 1/4x its MIC
[17] = MRSA USA300, partner Cefmetazole at 1/4x its MIC
[18] = MRSA USA300, partner Cefonicid at 1/4x its MIC
[19] = MRSA USA300, partner Cefotaxime at 1/4x its MIC
[20] = MRSA USA300, partner Cefotetan at 1/4x its MIC
[21] = MRSA USA300, partner Cefoxitin at 1/4x its MIC
[22] = MRSA USA300, partner Cefpodoxime at 1/4x its MIC
[23] = MRSA USA300, partner Cefprozil at 1/4x its MIC
[24] = MRSA USA300, partner Ceftazidime at 1/4x its MIC
[25] = MRSA USA300, partner Ceftizoxime at 1/4x its MIC
[26] = MRSA USA300, partner Ceftriaxone at 1/4x its MIC
[27] = MRSA USA300, partner Cephalothin at 1/4x its MIC
[28] = MRSA USA300, partner Doripenem at 1/4x its MIC
[29] = MRSA USA300, partner Ertapenem at 1/4x its MIC
[30] = MRSA USA300, partner Faropenem at 1/4x its MIC
[31] = MRSA USA300, partner Imipenem at 1/4x its MIC
[32] = MRSA USA300, partner Mecillinam at 1/4x its MIC
[33] = MRSA USA300, partner Meropenem at 1/4x its MIC
[34] = MRSA USA300, partner Methicillin at 1/4x its MIC
[35] = MRSA USA300, partner Mezlocillin at 1/4x its MIC
[36] = MRSA USA300, partner Moxalactam at 1/4x its MIC
[37] = MRSA USA300, partner Oxacillin at 1/4x its MIC
[38] = MRSA USA300, partner Piperacillin/tazobactam at 1/4x its MIC
[39] = MRSA USA300, partner Ticarcillin at 1/4x its MIC

SMILES: CCCCCCCCCCNCCC(=O)N[C@@H](CCCCN)C(=O)N[C@H](C(=O)N[C@@H](C)C(=O)N[C@@H](CCCCN)C(=O)N[C@@H](C)B1O[C@@H]2C[C@@H]3C[C@@H](C3(C)C)[C@]2(C)O1)[C@@H](C)O [Compound 217] ({Propanoyl(3-decylamino)}-KTAK-{boroAla((+)-pinanediol)})
- MIC (μg/mL) E. coli [1]: 23 µg/mL (≈ 26.7 µM)
- MIC (μg/mL) S. aureus [2]: 0.31 µg/mL (≈ 0.359 µM)
- sum of the FICs [3]: < 0.5
- time-kill: reduction of viable cells, combination vs either agent alone [4]: synergistic
- Compound 217 SIC [5, 6]: 0.125 µg/mL
- Fold reduction in Compound 217 MIC [5, 6]: 4
- Compound 217 SIC [5, 7]: 0.25 µg/mL
- Fold reduction in Compound 217 MIC [5, 7]: 2
- Compound 217 SIC [5, 8]: 0.125 µg/mL
- Fold reduction in Compound 217 MIC [5, 8]: 4
- Compound 217 SIC [5, 9]: 0.0156 µg/mL
- Fold reduction in Compound 217 MIC [5, 9]: 32
- Compound 217 SIC [5, 10]: 0.125 µg/mL
- Fold reduction in Compound 217 MIC [5, 10]: 4
- Compound 217 SIC [5, 11]: 0.125 µg/mL
- Fold reduction in Compound 217 MIC [5, 11]: 4
- Compound 217 SIC [5, 12]: 0.125 µg/mL
- Fold reduction in Compound 217 MIC [5, 12]: 4
- Compound 217 SIC [5, 13]: 0.0625 µg/mL
- Fold reduction in Compound 217 MIC [5, 13]: 8
- Compound 217 SIC [5, 14]: 0.0078 µg/mL
- Fold reduction in Compound 217 MIC [5, 14]: 64
- Compound 217 SIC [5, 15]: 0.03125 µg/mL
- Fold reduction in Compound 217 MIC [5, 15]: 16
- Compound 217 SIC [5, 16]: 0.0625 µg/mL
- Fold reduction in Compound 217 MIC [5, 16]: 8
- Compound 217 SIC [5, 17]: 0.125 µg/mL
- Fold reduction in Compound 217 MIC [5, 17]: 4
- Compound 217 SIC [5, 18]: 0.125 µg/mL
- Fold reduction in Compound 217 MIC [5, 18]: 4
- Compound 217 SIC [5, 19]: 0.0625 µg/mL
- Fold reduction in Compound 217 MIC [5, 19]: 8
- Compound 217 SIC [5, 20]: 0.125 µg/mL
- Fold reduction in Compound 217 MIC [5, 20]: 4
- Compound 217 SIC [5, 21]: 0.125 µg/mL
- Fold reduction in Compound 217 MIC [5, 21]: 4
- Compound 217 SIC [5, 22]: 0.0625 µg/mL
- Fold reduction in Compound 217 MIC [5, 22]: 8
- Compound 217 SIC [5, 23]: 0.125 µg/mL
- Fold reduction in Compound 217 MIC [5, 23]: 4
- Compound 217 SIC [5, 24]: 0.125 µg/mL
- Fold reduction in Compound 217 MIC [5, 24]: 4
- Compound 217 SIC [5, 25]: 0.0625 µg/mL
- Fold reduction in Compound 217 MIC [5, 25]: 8
- Compound 217 SIC [5, 26]: 0.03125 µg/mL
- Fold reduction in Compound 217 MIC [5, 26]: 16
- Compound 217 SIC [5, 27]: 0.03125 µg/mL
- Fold reduction in Compound 217 MIC [5, 27]: 16
- Compound 217 SIC [5, 28]: 0.03125 µg/mL
- Fold reduction in Compound 217 MIC [5, 28]: 16
- Compound 217 SIC [5, 29]: 0.125 µg/mL
- Fold reduction in Compound 217 MIC [5, 29]: 4
- Compound 217 SIC (μg/ml) [5, 30]: ≦0.0039 μg/ml
- Fold reduction in Compound 217 MIC [5, 30]: >128
- Compound 217 SIC [5, 31]: 0.03125 µg/mL
- Fold reduction in Compound 217 MIC [5, 31]: 16
- Compound 217 SIC [5, 32]: 0.25 µg/mL
- Fold reduction in Compound 217 MIC [5, 32]: 2
- Compound 217 SIC [5, 33]: 0.01563 µg/mL
- Fold reduction in Compound 217 MIC [5, 33]: 32
- Compound 217 SIC [5, 34]: 0.125 µg/mL
- Fold reduction in Compound 217 MIC [5, 34]: 4
- Compound 217 SIC [5, 35]: 0.125 µg/mL
- Fold reduction in Compound 217 MIC [5, 35]: 4
- Compound 217 SIC [5, 36]: 0.03125 µg/mL
- Fold reduction in Compound 217 MIC [5, 36]: 16
- Compound 217 SIC [5, 37]: 0.0625 µg/mL
- Fold reduction in Compound 217 MIC [5, 37]: 8
- Compound 217 SIC [5, 38]: 0.125 µg/mL
- Fold reduction in Compound 217 MIC [5, 38]: 4
- Compound 217 SIC [5, 39]: 0.0625 µg/mL
- Fold reduction in Compound 217 MIC [5, 39]: 8
- Compound 217 MIC ([5]; MRSA strain USA300, partner beta-lactam: None): 0.5 µg/mL
- synergy with partner beta-lactam antibiotics (SIC ≤ 1/4 MIC) ([5]; partner beta-lactam at 1/4x its MIC): synergize
